Assay results from patent US20240238305A1, “FORMULATIONS OF 3-((3-(4-(2-(ISOBUTYLSULFONYL)PHENOXY)-3-(TRIFLUOROMETHYL)PHENYL)-1,2,4-OXADIAZOL-5-YL)METHYL)-5,5-DIMETHYL-1-(2-MORPHOLINOETHYL)IMIDAZOLIDINE-2,4-DIONE” (Novartis AG, priority 2021, published 2024).

Legend:
[1] = tested on: SCD1; assay: Measurement of SCD1 expression in SZ95-SCD1-HiBit cells (HiBiT assay); assay type: cell-based, human
Experimental: SCD1 expression levels in SZ95 cells were quantitated using the HiBiT system (Promega) in which a small peptide sequence (SmBiT) with a larger protein (LgBiT) reconstitutes luciferase activity and can generate a luminescent signal used for quantitation. […] The gRNA targeting sequence used was […] (SEQ ID NO: 3) and the SCD1 insertion oligonucleotide encoding the SmBiT sequence was:
SZ95-SCD1-HiBit cells were seeded in 384-well cell culture white plates at a density of 3000 cells/[…]. Water was added to edge wells to avoid evaporation. Cells were incubated in a humidified incubator with 5% CO2 at 37° C. overnight. Tested compounds were diluted at a ratio of 1:3 in DMSO using an Agilent BRAVO Automated Liquid Handling Platform and, after further serial dilutions, added to cells at final concentrations starting from 18 μM. 2-(3-(3-((2-chloro-3-(trifluoromethyl)benzyl)(2,2-diphenylethyl)amino)propoxy)phenyl)acetic acid was used as a reference compound in each plate. Cells in the assay plate were incubated in a humidified incubator with 5% CO2 at 37° C. for 48h.
The assay plates were removed from the incubator and allowed to equilibrate to room temperature. […] Plates were placed on an orbital shaker at a speed of 300-600 rpm for 10 min at room temperature, and read on an EnVision Plate Reader using luminescence detection with a 1 second read time. […]

[2] = tested on: SZ95 sebocytes; assay: Sentinel Lipid Assay (SLA), global desaturation index; assay type: cell-based, human
Experimental: The sentinel lipid assay was used quantify the change in the global desaturation index in SZ95 sebocytes upon administration of Compound 1. The assay measures a smaller subset of lipid analytes in meibum (termed “sentinel lipids”) which would model the global changes the population of both saturated and desaturated lipids in the cells. In order to define this smaller subset of lipids, a complete lipid profile was recorded on dose response curves (eight levels from 4 nM to 10 uM) of Compound 1. […]
A medium throughput assay was created using this reduced set of sentinel lipids. […] Lipids were extracted from the cells using a 1:1 mixture of methylene chloride/methanol containing 10 nM of deuterated standards of triglycerides, which are used as internal standards for quantitating the lipid abundance. […] The abundance of the sentinel lipids and the internal standards are measured using multiple reaction monitor mode (MRM) on a triple quadrupole mass spectrometer. […] In order to compare compounds from multiple batches with one another, the measure raw desaturation index was normalized by dividing it by the desaturation index of the DMSO dosed cells, and all data was assessed as the fraction by which the compound increases the desaturation index above 1. […]

[3] = normalized to reference compound Amax of 100%

With `O=C(O)Cc1cccc(OCCCN(Cc2cccc(C(F)(F)F)c2Cl)CC(c2ccccc2)c2ccccc2)c1` [Reference, 2-(3-(3-((2-chloro-3-(trifluoromethyl)benzyl)(2,2-diphenylethyl)amino)propoxy)phenyl)acetic acid] as the molecule, how does the “HiBit Amax” value ([1]; SZ95-SCD1-HiBit cells, 48h, compared to reference compound) read?
The value was 95.1.

And the “HiBit Normalized Amax” value [1, 3]?
Its value is 100.0%.

And the “SLA Amax” value ([2]; SZ95 cells, 72h, compared to reference compound)?
Its value is 96.0.

What about the “SLA Normalized Amax” value [2, 3] of the same molecule?
Its value is 100.0%.
